In patent publication US8378071B2, “Peptide epitopes of VEGFR-2/KDR that inhibit angiogenesis” (The United States of America as Represented by the …, priority 2005, dated 2013):

How the values were obtained:
HLA-A2 = target: T1, HLA-A2 (Homo sapiens, UniProt P04439, D140Y/D185E/D98H/E176V/E277Q/G131W/G231S/I119V/I121R/I166T/I218V/L300P/L318F/N151K/N90K/P208A/P217A/Q86G/Q94H/R138H/R169H/T345S); assay: T2 binding assay (HLA-A2 stabilization); details: T2 cells, FIG. 7
T1 construct: endogenous in cells; host or cells: T2 cells
Source text: The ability of any of the above described peptides to bind MHC Class I can be confirmed using assays available in the art. For example, the ability of a murine VEGFR-2/KDR peptide to bind a mouse Class I molecule, such as H-2 Db can be determined in a MHC stabilization assay employing RMA-S cells as described in Lyman et al., J. Virol. 76:3125-3134, 2002, and in the EXAMPLES Section below. The ability of a human VEGFR-2/KDR peptide to bind a human Class I molecule, such as an HLA-A2 protein can be evaluated in a T2 MHC binding assay as described by Cerundolo et al., Nature 342:449-452, 1990. In brief, T2 cells are cultured in RPMI1640 with 10% FBS, and grown in 5% CO2 at 37° C. […] The level of stabilized HLA-A2 on the surface of the T2 cells is detected using the pan HLA class I monoclonal antibody W6/32 (European Collection of Animal Cell Cultures (ECACC), Porton Down, Salisbury) that recognizes stabilized HLA-A2 complexes. The primary monoclonal antibody can be labeled or can be detected using, e.g., a labeled goat antimouse IgG (Cambridge Biosciences, Cambridge, United Kingdom) as the second layer. Samples are fixed in 1% paraformaldehyde in PBS prior to analysis and analyzed on a Becton Dickinson FACSCAN®. […]

H-2 Db = target: T2, H-2 Db (Mus musculus, UniProt P01899); assay: RMA-S binding assay (MHC stabilization, flow cytometry); details: for Concentration at FI=0.5: RMA-S cells loaded 16 to 18 h at 37° C, FI = fluorescence with peptide/without peptide - 1; for Binding to H-2 Db (in words): RMA-S cells, FIG. 1
T2 construct: enhance surface expression of the respective MHC class I molecules on these cells by stabilizing the peptide-MHC complex; endogenous in cells; host or cells: RMA-S (H-2b) cells
T2 sequence (P01899 25-362): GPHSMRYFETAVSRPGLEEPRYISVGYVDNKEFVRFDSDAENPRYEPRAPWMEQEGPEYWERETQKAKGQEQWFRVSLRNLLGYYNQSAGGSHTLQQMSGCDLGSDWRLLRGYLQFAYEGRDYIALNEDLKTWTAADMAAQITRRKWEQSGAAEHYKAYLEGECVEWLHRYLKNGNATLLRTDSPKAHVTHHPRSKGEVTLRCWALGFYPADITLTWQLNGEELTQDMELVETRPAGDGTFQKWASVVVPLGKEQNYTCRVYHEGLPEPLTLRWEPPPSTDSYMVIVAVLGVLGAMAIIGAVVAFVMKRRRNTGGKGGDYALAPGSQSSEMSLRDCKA
T2 sequence (P01887 21-119 partner): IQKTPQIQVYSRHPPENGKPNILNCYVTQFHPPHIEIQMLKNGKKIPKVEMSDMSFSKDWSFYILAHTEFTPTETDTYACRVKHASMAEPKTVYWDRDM
Experimental: FIG. 1 is a line graph illustrating results of an RMA-S binding assay. KDR2 and KDR3 bind efficiently to H-2 Db molecules. RMA-S cells were loaded with various peptides for 16 to 18 h at 37° C. Levels of surface class I molecules were assessed by flow cytometric analysis using mouse monoclonal antibodies specific for H-2 Db. FI=Fluoresce measurement after peptides stimulation/Fluoresce measurement without peptide-1. : KDR1, ▴: KDR2, : KDR3, ◯: wild type P53 264-272, : HPV 16 E7 49-57. HPV E7 49-57 and Human P53 264-272 serve as positive and negative control respectively. The results shown here are representative of three separate experiments.
To test the binding affinity of these peptides to H-2 Db, an RMA-S binding experiment was performed, and the FI value in the assay was measured. […] The RMA-Binding assays were performed as previously described (Lyman et al., J. Virol. 76:3125-3134, 2002). Briefly, synthetic peptides were dissolved in dimethyl sulfoxide before dilution. For MHC-binding assays, RMA-S cells were loaded with various peptides for 16 to 18 h at 37° C. Levels of surface class I molecules were assessed by flow cytometric analysis (FACScan; Becton Dickinson) using mouse monoclonal antibodies specific for H-2 Db (Southern Biotech, clone No. 28-14-8). FI=Fluorescence after peptides stimulation/Fluorescence without peptide-1.
Previous data have shown that the HPV16E7 49-57 can bind to H-2 Db molecules efficiently and induce a strong CTL response in B6 mice (Feltkamp et al., Eur. J. Immunol. 23:2242-2249, 1993). HPV16E7 49-57 peptide was used as a positive control; and the human P53 264-272, known to bind HLA-A2 but not H-2 Db, was used as a negative control (FIG. 1).

[1] = tested on: IFN-γ secreting spleen cells / DLN cells; assay: IFN-γ Elispot assay on splenocytes or draining lymph node cells of peptide-vaccinated mice; type: in vivo, C57BL/6 mice; details: for IFN-γ secreting cells per million fresh DLN cells: stimulated with syngeneic VEGFR-2/KDR expressing H5V cells, FIG. 2C
Source text: FIGS. 2A-C are bar graphs representing the results of IFN-Eli spot assays. Four groups of mice (5 mice per group) were vaccinated with different peptides (KDR1, KDR2, KDR3). Mice were sacrificed, spleen or drained lymph nodes (DLN) cells prepared as described in methods section served as effectors. Syngeneic EL4 cells (3,000 rads) pulsed with peptides or H5V cells after treated with MMC served as stimulators. Irradiated EL4 without peptide or MMC treated allogeneic bEND3 cells as control. Dot bar: EL4 pulsed with irrelevant peptide as negative control; Solid bar: EL4 pulsed with KDR2 or KDR3 respectively; Open bar: EL4 without any peptide; A. Results of fresh spleen cells; B. Results of spleen cells after 1 week restimulation in vitro; C. Cells from fresh drained lymph nodes stimulated with H5V or bEND3 cells.
Mice were immunized with selected peptide, together with murine GM-CSF and anti-mouse CD40 as adjuvants. An emulsion containing 50 μl Incomplete Freud's Adjuvants (IFA, Sigma) with or without 100 […] of peptide and 5 μg murine GM-CSF (Pepro Tech), 20 μg anti-murine CD40 monoclonal antibody (Southern Biotech, Clone number 1C10) was prepared in a final volume of 100 μl. Subcutaneous injections were performed on the tails of the mice with 1 ml syringes and 30 gauge needles. For the Matrigel Plug Assay, two boosts were injected at 4 week intervals.
IFN-γ Elispots assay was performed on draining lymph nodes cells (DLN) or splenocytes collected 2 weeks after vaccination to evaluate the antigen specific immune response against the VEGFR-2/KDR peptides. Elispot plates (Millipore, Bedford, Mass.) were coated with 8 μg of anti-gamma interferon (IFN-γ) antibody per ml in sterile phosphate-buffered saline (PBS) overnight at 4° C. Plates were washed and then blocked with RPMI 1640 with 10% FBS. Fresh splenocytes or cells after 1 week in vitro restimulation were used as effectors. 1 or 5×10^5 effector cells were co-cultured overnight with or without 2×10^5 irradiated (3,000 rads) EL4 cells in 200 μl media at 37° C., 5% CO2 in the presence of appropriate concentration of peptide. When H5V and bEND3 cells in stead of EL4 were used as stimulators, they were treated with 0.1 mg/ml mitomycin C (Sigma, St. Louis) for half an hour at 37° C., then wash three times with PBS. 5×10^4H5V or bEND3 cells were co-cultured overnight with 2×10^5 draining lymph nodes cells. Spots were developed as previously described using biotin-conjugated anti-cytokine antibodies (Endogen, Boston, Mass.) and streptavidin-horseradish peroxidase in 1% BSA-PBS.

H5V endothelial cells = assay: 4-hour 51Cr release assay, CTLs from immunized mice, endothelial cell targets; type: cell-based, mouse; details: for Percentage of lyses by induced CTLs, control: control for H5V; for Percentage of lyses by induced CTLs, control / Percentage of lyses by induced CTLs: E:T ratio 50:1; for Lysis of H5V cells and peptide-pulsed EL4 by induced CTLs (in words): not bEND3 or EL4 alone, FIG. 4; for Percentage of lyses by induced CTLs: targets H5V
Experimental: (§1) FIGS. 4A-D are line graphs illustrating the results of standard 4 hr ^51Cr release test. Three weeks after immunization, spleen cells were prepared from immunized mice (4-5 mice per group) and restimulated with vaccinated peptides in a 24-well plate in the presence of RPMI 1640 (Invitrogen) with 10% FCS. 10% T-stim was added 48 hours later into the culture media and the cells were incubated for 5 days at 37° C. The CTL activity was tested in a 4-hour ^51Cr release assay. Target cells include VEGFR-2/KDR+H5V (H-2d) and bEND3 (H-2b) endothelial cells, VEGFR-2/KDR-EL4 cells pulsed with peptides or EL4 alone. The percentage of specific lysis was calculated using the formula: (experimental release−spontaneous release)/(maximum release−spontaneous release)×100. Upper panel: effector cells from mice immunized with KDR2, Lower panel: effectors from KDR3 immunized mice.
(§2) Chromium (^51Cr) Release Assays were used to determine whether T cells identified as binding to VEGFR-2/KDR specifically targeted endothelial cells. Mice were vaccinated twice with 5 μg GM-CSF, 20 μg anti-CD40 and 100 μg peptide per mice. Briefly, spleen cells were prepared from immunized mice (4-5 mice per group) and restimulated with the vaccinated peptides in 24-well plates in RPMI 1640 (Invitrogen) with 10% FCS. Forty-eight hours later, 10% T-stim (BD Bioscience) was added into the culture media. CTL activity was tested in a 4-hour ^51Cr release assay 5 days later. VEGFR-2/KDR+syngeneic H5V (H-2d), allogeneic bEND3 (H-2b) endothelial cells and VEGFR-2/KDR syngeneic EL4 cells pulsed with peptides or EL4 alone served as target cells. The percentage cytotoxicity was calculated using the formula: (experimental release−spontaneous release)/(maximum release−spontaneous release)×100.

[2] = tested on: EL4 cells pulsed with peptides; assay: 4-hour 51Cr release assay, CTLs from immunized mice, EL4 targets; type: cell-based, mouse; details: E:T ratio 50:1; for Percentage of lyses by induced CTLs, control: control for EL4 pulsed with peptide; for Percentage of lyses by induced CTLs: targets EL4 pulsed with the vaccinated peptide
Experimental: as §1, §2

## AMFFWLLLV [KDR775, human VEGFR-2/KDR peptide]
HLA-A2
  Affinity for MHC molecules relative to the other peptides (in words): substantially higher affinity

## FSNSTNDILI [KDR3, murine VEGFR-2/KDR peptide, location 615-624]
H-2 Db
  Concentration at FI=0.5: about 3 μM
  Binding to H-2 Db (in words): bind well
[1]; fresh spleen cells of vaccinated mice, FIG. 2A
  Number of IFN-γ secreting fresh spleen cells after pulsing with peptide: 176
[1]; FIG. 2A
  IFN-γ secreting fresh spleen cells relative to irrelevant HPV E7 peptide / background: about 6 times
[1]
  IFN-γ secreting cells per million fresh DLN cells: 161 per million cells
H5V endothelial cells
  Percentage of lyses by induced CTLs, control: 3%
  Lysis of H5V cells and peptide-pulsed EL4 by induced CTLs (in words): can lyse
  Percentage of lyses by induced CTLs: 13%
[2]
  Percentage of lyses by induced CTLs, control: 0%
  Percentage of lyses by induced CTLs: 21%

## HPV16E7 49-57: Human Papilloma Virus 16E7 49-57 peptide, known H-2 Db binder, positive control (RAHYNIVTF) [reference compound]
H-2 Db
  Concentration at FI=0.5: about 12.5 μM

## LLSEKNVVKI [KDR1, murine VEGFR-2/KDR peptide, location 1033-1042]
[1]; spleen cells restimulated 1 week in vitro, FIG. 2B
  IFN-γ secreting cells relative to background after 1 week in vitro culture with the vaccinated peptide: remained negative

## P53 264-272: human P53 264-272 peptide, binds HLA-A2 but not H-2 Db, negative control [reference compound]
H-2 Db
  Concentration at FI=0.5: > 200 µM
  Binding to H-2 Db (in words): does not bind

## VILTNPISM [KDR2, murine VEGFR-2/KDR peptide, location 400-408]
H-2 Db
  Concentration at FI=0.5: about 24 μM
  Binding to H-2 Db (in words): bind well
[1]; FIG. 2A
  IFN-γ secreting fresh spleen cells relative to irrelevant HPV E7 peptide / background: about 50 times
[1]
  IFN-γ secreting cells per million fresh DLN cells: 360 per million cells
H5V endothelial cells
  Percentage of lyses by induced CTLs, control: ~1%
  Lysis of H5V cells and peptide-pulsed EL4 by induced CTLs (in words): can lyse
  Percentage of lyses by induced CTLs: 28%
[2]
  Percentage of lyses by induced CTLs, control: about 8%
  Percentage of lyses by induced CTLs: 25%
